From US20180369203A1, “METHODS OF TREATING CANCER BY ADMINISTERING A MEK INHIBITOR IN COMBINATION WITH A PROTEASOME INHIBITOR” (The Jackson Laboratory, priority 2015, published 2018)

System: A2058 cells
Assay: A2058 s.c. melanoma xenograft in NOD/SCID mice
Format: in vivo
Description: FIGS. 6A-N show combined MEK and proteasome inhibition exerts potent tumor-suppressive effects. (A) After treatments with 20 nM AZD6244, 100 nM Bortezomib, or both for 24 hr, viable cells were quantitated by CellTiter® Blue (mean±SD, n=6, ANOVA). (B and C) 1×10^6 A2058 cells were s.c. injected into NOD/SCID mice. After 7 days, mice were treated with DMSO, 5 mg/Kg AZD6244, 0.5 mg/Kg Bortezomib, or the combination via i.p. injection three times a week. Tumor volumes were measured using a caliper weekly (mean±SEM, ANOVA). Tumor growth curves were fitted to exponential growth models to derive tumor-doubling time (DT). Kaplan-Meier survival curve was plotted for each group (Log-rank test). (D) Proteins were detected by immunoblotting, 3 tumors per group. (E) Tumor lysates were used to quantitate AOs, 5 tumors per group (mean±SD, n=3, ANOVA). (F) Tumor lysates were used to seed Aβ1-42 peptides, 5 tumors per group (mean±SD, n=3, ANOVA). (G-H) Tumor sections were stained with CR, 5 tumors per group. Ten random fields were taken for each section. Scale bar: 50 μm. Total CR fluorescence in each field was quantitated using ImageJ and normalized against total nuclei (median, n=50, ANOVA). (I) Following CR staining, tumor sections were visualized under polarized light microscopy. Scale bar: 50 μm. (J) Following staining with AF-specific antibodies (OC), sections of tumors receiving combined treatment were further stained with CR. Scale bar: 50 μm. […] Body weights were monitored weekly (mean±SD, n=10, ANOVA). […]
FIG. 13A-J illustrates combined MEK and proteasome inhibition disrupts proteostasis and impedes in vivo tumor growth. […] Body weights were recorded before xenografting and at sacrifice. […] Quantitation of immunoblotting results in FIG. 6D (mean±SD, n=3, ANOVA). […] Lys48-specific protein ubiquitination and caspase 3 cleavage were measured by immunoblotting in 3 spleens per group.
A2058 cells were s.c. injected into the left flanks of 9-week-old female NOD.CB17-Prkdc/J (NOD/SCID) mice (The Jackson Laboratory). […] Tumor volumes were calculated following the formula 4/3πR^3. […]

CC(C)C[C@H](NC(=O)[C@H](Cc1ccccc1)NC(=O)c1cnccn1)B(O)O [Bortezomib, bortezomib]
growth of xenografted melanomas (5 mg/Kg AZD6244, 0.5 mg/Kg Bortezomib or combination, i.p. three times a week): no significant impacts
HSF1 Ser326 phosphorylation and HSP expression in tumors (stress response) (tumor immunoblotting): induced
ubiquitination in tumors (tumor immunoblotting, 3 tumors per group): slightly elevated
